Assay results from the pKa sets of Baltruschat and Czodrowski (2020).

Row | Compound | pKa
1 | CCN(C)C(=O)Oc1cccc(C(C)N(C)C)c1 (centres undefined) | 8.8
2 | CCCCC[C@H](O)/C=C/[C@H]1[C@H](C/C=C/CCCC(=O)O)C(=O)C[C@@H]1O | 4.77
3 | O=C1CC2(CCCC2)CC(=O)N1CCCCN1CCN(c2ncccn2)CC1 | 7.6
4 | CCC1OC(=O)CC(O)CC(OC2OC(C)CC(N(C)C)C2O)C(CC=O)CC(C)C(=O)C=CC2OC2C1C (centres undefined) | 8.79
5 | CN(C)CCC=C1c2ccccc2CCc2ccccc21 | 9.49
6 | CC(C)n1c(/C=C/[C@H](O)C[C@H](O)CC(=O)O)c(-c2ccc(F)cc2)c2ccccc21 | 4.31
7 | CC(C)(C)c1ccc(C(O)CCCN2CCC(C(O)(c3ccccc3)c3ccccc3)CC2)cc1 (centres undefined) | 9.86
8 | CC(C(=O)O)c1ccc(-c2ccccc2)c(F)c1 (centres undefined) | 4.03
9 | NC(Cc1c[nH]c2ccccc12)C(=O)NC(Cc1c[nH]c2ccccc12)C(=O)O (centres undefined) | 3.38
10 | C=CCOc1ccccc1OCC(O)CNC(C)C (centres undefined) | 9.57
11 | CC[C@H]1OC(=O)[C@@H](C)[C@H](O[C@H]2C[C@](C)(OC)[C@H](O)[C@@H](C)O2)[C@@H](C)[C@@H](O[C@@H]2O[C@H](C)C[C@@H](N(C)C)[C@@H]2O)[C@](C)(O)C[C@@H](C)C(=O)[C@@H](C)[C@@H](O)[C@]1(C)O | 8.8
12 | NC(Cc1c[nH]c2ccccc12)C(=O)NC(Cc1ccccc1)C(=O)O (centres undefined) | 3.18
13 | COc1ccccc1OCCNCC(O)COc1cccc2[nH]c3ccccc3c12 (centres undefined) | 7.97
14 | COC1CC(OC2C(C)C(O)OC(C)C(C)C(O)C(C)C(=O)C3(CO3)CC(C)C(OC3OC(C)CC(N(C)C)C3O)C2C)OC(C)C1O (centres undefined) | 8.84
15 | CC(=O)Oc1c(C)cc(OCC(O)CNC(C)C)c(C)c1C (centres undefined) | 9.54
16 | CC1(C)S[C@@H]2[C@@H](NC(=O)[C@H](N)c3ccc(O)cc3)C(=O)N2[C@H]1C(=O)O | 2.6
17 | COc1ccc([C@@H]2Sc3ccccc3N(CCN(C)C)C(=O)[C@@H]2OC(C)=O)cc1 | 8.02
18 | CC(C)NCC(O)COc1cccc2[nH]c3ccccc3c12 (centres undefined) | 9.52
19 | CO[C@H]1[C@@H](O[C@@H]2O[C@H](C)[C@@H](O[C@H]3C[C@@](C)(O)[C@@H](O[C@@H](O)CC(C)C)[C@H](C)O3)[C@@H](N(C)C)[C@H]2O)[C@@H](CCO)C[C@@H](C)[C@H](O)CC[C@@H]2O[C@H]2C[C@@H](C)O[C@@H](O)C[C@H]1O[C@H](C)O | 7.61
20 | CC(C)(C)NCC(O)COc1cccc2c1C[C@H](O)[C@H](O)C2 (some centres undefined) | 9.69
21 | CCC1OC(=O)CC(O)C(C)C(CC=O)(OC2OC(C)CC(N(C)C)C2O)CC(C)C(=O)C=CC(C)=CC1C (centres undefined) | 8.83
22 | CCC(=O)OC(Cc1ccccc1)(c1ccccc1)C(C)CN(C)C (centres undefined) | 9.06

Row | Compound | pKa
23 | CN[C@H]1C(O)O[C@H](CO)[C@@H](O)[C@@H]1O (some centres undefined) | 9.6
24 | CN(C)CCOC1(c2ccccc2)CC2CCC1(C)C2(C)C (centres undefined) | 9.61
25 | CCC1OC(=O)CC(O)C(C)C(OC2OC(C)C(OC3CC(C)(O)C(O)C(C)O3)C(N(C)C)C2O)C(CC=O)CC(C)C(=O)C=CC(C)=CC1COC1OC(C)C(O)C(OC)C1CC (centres undefined) | 7.73
26 | CCN(CC)CCOC(=O)c1ccc(N)cc1 | 9.04
27 | CC(C)(C)NC[C@H](O)COc1nsnc1N1CCOCC1 | 9.53
28 | COc1ccc2c3c1O[C@H]1[C@@H](O)C=C[C@H]4[C@@H](C2)NCC[C@@]341 | 9.23
29 | CN/C(=C\[N+](=O)[O-])NCCSCc1ccc(CN(C)C)o1 | 8.31
30 | COC1C(OC(C)=O)CC(=O)OC(C)CC2OC2/C=C/C(=O)C(C)CC(CC=O)C1OC1OC(C)C(O)C(N(C)C)C1O (centres undefined) | 8.44
31 | CCC1OC(=O)CC(O)C(C)C(OC2OC(C)C(O)C(N(C)C)C2O)C(CC=O)CC(C)C(=O)C=CC(C)=CC1COC1OC(C)C(O)C(OC)C1CC (centres undefined) | 8.36
32 | CC(C)(C)NCC(O)COc1ccccc1C1CCCC1 (centres undefined) | 9.92
33 | CN(C)CCCOc1nn(Cc2ccccc2)c2ccccc12 | 9.27
34 | CC(C)NCC(O)COc1ccc(COCCOC(C)C)cc1 (centres undefined) | 9.57
35 | NC(CC(=O)O)C(=O)O (centres undefined) | 9.67
36 | CC(Cc1ccc(C(C)(C)C)cc1)CN1CC(C)OC(C)C1 (centres undefined) | 7.34
37 | CCCN(CCC)S(=O)(=O)c1ccc(C(=O)O)cc1 | 3.01
38 | CC(NC(CCc1ccccc1)C(=O)O)C(=O)N1CCCC1C(=O)O (centres undefined) | 7.84
39 | CC[C@H]1OC(=O)[C@@H](C)[C@H](O[C@@H]2C[C@](C)(OC)[C@@H](O)[C@@H](C)O2)[C@@H](C)[C@@H](O[C@@H]2O[C@H](C)C[C@@H](N(C)C)[C@@H]2O)[C@](C)(O)C[C@@H](C)/C(=N/OCOCCOC)[C@@H](C)[C@@H](O)[C@]1(C)O | 9.27
40 | Cc1cc(=O)oc2cc(C3OC(C(=O)O)C(O)C(O)C3O)ccc12 (centres undefined) | 2.82
41 | CCCCC[C@H](O)/C=C/[C@H]1[C@H](CCCCCCC(=O)O)C(=O)C[C@@H]1O | 4.87
42 | N#Cc1ccc2c(c1)N(CCCCN1CCC(O)CC1)c1ccccc1S2 | 8.76
43 | CCOC(=O)[C@H](CCc1ccccc1)N[C@@H](C)C(=O)N1CCC[C@H]1C(=O)O | 2.92
44 | CCN(CC)C(=O)Nc1ccc(OCC(O)CNC)c(C(C)=O)c1 (centres undefined) | 9.66
